Laboratory results from patent US7601686B2, “Hepatitis C virus inhibitors” (Bristol-Myers Squibb Company, priority 2005, dated 2009).
Where two headings read alike, the source gives them in different places.

Legend:
[1] = biological target: T1, HCV NS3/4A protease complex, BMS strain (UniProt P27958, species not given/STRAIN_BMS); experiment: FRET peptide assay to monitor HCV NS3/4A proteolytic activity (BMS strain); format: biochemical, Hepatitis C virus (genotype 1a)
T1 construct: DNA encoding the recombinant HCV NS3/4A protease complex (amino acids 1027 to 1711) for these strains [H77 and J4L6S]; fused on or other part: For the H77 and J4L6S constructs, a three-lysine solubilising tail at the NS4A C-terminus and a Ni-NTA-purifiable tag from pET21b
T1 sequence (P27958 1027-1657, stated change not applied, one chain of several): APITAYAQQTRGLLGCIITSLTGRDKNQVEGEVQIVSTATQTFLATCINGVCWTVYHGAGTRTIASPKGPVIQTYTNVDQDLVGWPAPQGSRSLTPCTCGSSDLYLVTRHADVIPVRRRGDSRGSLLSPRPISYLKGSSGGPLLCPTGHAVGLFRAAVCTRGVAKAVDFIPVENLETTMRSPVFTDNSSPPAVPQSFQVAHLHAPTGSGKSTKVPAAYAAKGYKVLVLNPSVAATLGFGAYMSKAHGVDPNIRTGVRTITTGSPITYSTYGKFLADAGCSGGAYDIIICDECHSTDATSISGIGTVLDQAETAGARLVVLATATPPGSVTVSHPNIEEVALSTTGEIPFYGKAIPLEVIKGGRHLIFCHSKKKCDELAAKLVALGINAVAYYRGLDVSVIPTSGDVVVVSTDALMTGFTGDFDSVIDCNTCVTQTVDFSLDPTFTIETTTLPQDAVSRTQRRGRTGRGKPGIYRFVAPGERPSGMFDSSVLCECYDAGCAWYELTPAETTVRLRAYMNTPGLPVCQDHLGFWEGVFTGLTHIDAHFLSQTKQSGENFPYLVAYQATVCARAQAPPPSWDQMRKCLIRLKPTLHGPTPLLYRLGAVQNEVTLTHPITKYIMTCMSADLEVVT
Description: Generation of Recombinant HCV NS3/4A Protease Complex
HCV NS3 protease complexes, derived from the BMS strain, H77 strain or J4L6S strain, were generated, as described below. These purified recombinant proteins were generated for use in a homogeneous assay (see below) to provide an indication of how effective compounds of the present disclosure would be in inhibiting HCV NS3 proteolytic activity.
Serum from an HCV-infected patient was obtained from Dr. T. Wright, San Francisco Hospital. An engineered full-length cDNA (compliment deoxyribonucleic acid) template of the HCV genome (BMS strain) was constructed from DNA fragments obtained by reverse transcription-PCR (RT-PCR) of serum RNA (ribonucleic acid) and using primers selected on the basis of homology between other genotype 1a strains. From the determination of the entire genome sequence, a genotype 1a was assigned to the HCV isolate according to the classification of Simmonds et al. (See P Simmonds, K A Rose, S Graham, S W Chan, F McOmish, B C Dow, E A Follett, P L Yap and H Marsden, J. Clin. Microbiol., 31(6), 1493-1503 (1993)). […] The infectious clones, H77 (1a genotype) and J4L6S (1b genotype) were obtained from R. Purcell (NIH) and the sequences are published in Genbank (AAB67036, see Yanagi, M., Purcell, R. H., Emerson, S. U. and Bukh, J. Proc. Natl. Acad. Sci. U.S.A. 94(16), 8738-8743 (1997); AF054247, see Yanagi, M., St Claire, M., Shapiro, M., Emerson, S. U., Purcell, R. H. and Bukh, J, Virology 244 (1), 161-172. (1998)).
The H77 and J4L6S strains were used for production of recombinant NS3/4A protease complexes. DNA encoding the recombinant HCV NS3/4A protease complex (amino acids 1027 to 1711) for these strains were manipulated as described by P. Gallinari et al. (see Gallinari P, Paolini C, Brennan D, Nardi C, Steinkuhler C, De Francesco R. Biochemistry. 38(17):5620-32, (1999)). Briefly, a three-lysine solubilizing tail was added at the 3′-end of the NS4A coding region. The cysteine in the P1 position of the NS4A-NS4B cleavage site (amino acid 1711) was changed to a glycine to avoid the proteolytic cleavage of the lysine tag. Furthermore, a cysteine to serine mutation was introduced by PCR at amino acid position 1454 to prevent the autolytic cleavage in the NS3 helicase domain. The variant DNA fragment was cloned in the pET21b bacterial expression vector (Novagen) and the NS3/4A complex was expressed in Escherichia coli strain BL21 (DE3) (Invitrogen) following the protocol described by P. Gallinari et al. (see Gallinari P, Brennan D, Nardi C, Brunetti M, Tomei L, Steinkuhler C, De Francesco R., J. Virol. 72(8):6758-69 (1998)) with modifications. Briefly, the NS3/4A protease complex expression was induced with 0.5 millimolar (mM) Isopropyl β-D-1-thiogalactopyranoside (IPTG) for 22 hours (h) at 20° C. A typical fermentation (1 Liter (L)) yielded approximately 10 grams (g) of wet cell paste. The cells were resuspended in lysis buffer (10 mL/g) consisting of 25 mM N-(2-Hydroxyethyl)piperazine-N′-(2-Ethane Sulfonic acid) (HEPES), pH 7.5, 20% glycerol, 500 mM Sodium Chloride (NaCl), 0.5% Triton X-100, 1 microgram/milliliter (“μg/mL”) lysozyme, 5 mM Magnesium Chloride (MgCl2), 1 μg/mL DnaseI, 5 mM β-Mercaptoethanol (βME), Protease inhibitor—Ethylenediamine Tetraacetic acid (EDTA) free (Roche), homogenized and incubated for 20 minutes (min) at 4° C. The homogenate was sonicated and clarified by ultra-centrifugation at 235000 g for 1 h at 4° C. Imidazole was added to the supernatant to a final concentration of 15 mM and the pH adjusted to 8.0. The crude protein extract was loaded on a Nickel—Nitrilotriacetic acid (Ni-NTA) column pre-equilibrated with buffer B (25 mM HEPES, pH 8.0, 20% glycerol, 500 mM NaCl, 0.5% Triton X-100, 15 mM imidazole, 5 mM βME). The sample was loaded at a flow rate of 1 mL/min. The column was washed with 15 column volumes of buffer C (same as buffer B except with 0.2% Triton X-100). […]

[2] = system: HCV replicon in HUH-7 cells; experiment: HCV replicon FRET assay; format: cell-based, Hepatitis C virus (strain 1b); conditions: HCV replicon cell assay, HUH-7, read-out: EC50 Range
Description: Generation of HCV Replicon
An HCV replicon whole cell system was established as described by Lohmann V, Korner F, Koch J, Herian U, Theilmann L, Bartenschlager R., Science 285(5424):110-3 (1999). This system enabled us to evaluate the effects of our HCV Protease compounds on HCV RNA replication. Briefly, using the HCV strain 1b sequence described in the Lohmann paper (Assession number:AJ238799), an HCV cDNA was synthesized by Operon Technologies, Inc. (Alameda, Calif.), and the full-length replicon was then assembled in plasmid pGem9zf(+) (Promega, Madison, Wis.) using standard molecular biology techniques. The replicon consists of (i) the HCV 5′ UTR fused to the first 12 amino acids of the capsid protein, (ii) the neomycin phosphotransferase gene (neo), (iii) the IRES from encephalomyocarditis virus (EMCV), and (iv) HCV NS3 to NS5B genes and the HCV 3′ UTR. Plasmid DNAs were linearized with ScaI and RNA transcripts were synthesized in vitro using the T7 MegaScript transcription kit (Ambion, Austin, Tex.) according to manufacturer's directions. In vitro transcripts of the cDNA were transfected into the human hepatoma cell line, HUH-7. […] Resulting cell lines were characterized for positive and negative strand RNA production and protein production over time.
The HCV replicon FRET assay was developed to monitor the inhibitory effects of compounds described in the disclosure on HCV viral replication. HUH-7 cells, constitutively expressing the HCV replicon, were grown in Dulbecco's Modified Eagle Media (DMEM) (Gibco-BRL) containing 10% Fetal calf serum (FCS) (Sigma) and 1 mg/mL G418 (Gibco-BRL). Cells were seeded the night before (1.5×10^4 cells/well) in 96-well tissue-culture sterile plates. Compound and no compound controls were prepared in DMEM containing 4% FCS, 1:100 Penicillin/Streptomysin (Gibco-BRL), 1:100 L-glutamine and 5% DMSO in the dilution plate (0.5% DMSO final concentration in the assay). Compound/DMSO mixes were added to the cells and incubated for 4 days at 37° C. After 4 days, cells were first assessed for cytotoxicity using alamar Blue (Trek Diagnotstic Systems) for a CC50 reading. The toxicity of compound (CC50) was determined by adding 1/10th volume of alamar Blue to the media incubating the cells. After 4 h, the fluorescence signal from each well was read, with an excitation wavelength at 530 nm and an emission wavelength of 580 nm, using the Cytofluor Series 4000 (Perspective Biosystems). Plates were then rinsed thoroughly with Phosphate-Buffered Saline (PBS) (3 times 150 μl).

[3] = read-out: IC 50 Range; NS3/4A BMS strain, enzyme assay
[4] = NS3/4A BMS strain, enzyme assay; read-out: IC 50 Range

SMILES	EC50 ([2]; Hepatitis C virus) [µM]	IC50 [1, 4] [µM]	further results
C=CC1CC1(NC(=O)[C@@H]1C[C@@H](NC(=O)OCC2c3ccccc3-c3ccccc32)CN1C(=O)[C@@H](NC(=O)OC(C)(C)C)C(C)(C)C)C(=O)NS(=O)(=O)C1CC1 (mixture of isomers) [Compound 5, [1-(2-tert-butoxycarbonylamino-3,3-dimethyl-butyryl)-5-(1-cyclopropanesulfonylaminocarbonyl-2-vinyl-cyclopropylcarbamoyl)-pyrrolidin-3-yl]-carbamic acid 9H-fluoren-9-ylmethyl ester]	0.15 to 15		IC50 [1, 3]: 0.15 to 15 µM
C=CC1CC1(NC(=O)[C@@H]1C[C@@H](NC(=O)c2sc3ccccc3c2Cl)CN1C(=O)[C@@H](NC(=O)CC1CC1)C(C)(C)C)C(=O)O (single isomer, unassigned) [Compound 1, 1-({4-[(3-Chloro-benzo[b]thiophene-2-carbonyl)-amino]-1-[2-(2-cyclopropyl-acetylamino)-3,3-dimethyl-butyryl]-pyrrolidine-2-carbonyl}-amino)-2-vinyl-cyclopropanecarboxylic acid]		0.15 to 15	
C=CC1CC1(NC(=O)[C@@H]1C[C@@H](NC(=O)c2sc3ccccc3c2Cl)CN1C(=O)[C@@H](NC(=O)CC1CC1)C(C)(C)C)C(=O)O (single isomer, unassigned) [Compound 2, 1-({4-[(3-Chloro-benzo[b]thiophene-2-carbonyl)-amino]-1-[2-(2-cyclopropyl-acetylamino)-3,3-dimethyl-butyryl]-pyrrolidine-2-carbonyl}-amino)-2-vinyl-cyclopropanecarboxylic acid]		> 15	
C=CC1CC1(NC(=O)[C@@H]1C[C@@H](NC(=O)c2sc3ccccc3c2Cl)CN1C(=O)[C@@H](NC(=O)CC1CC1)C(C)(C)C)C(=O)NS(=O)(=O)C1CC1 (single isomer, unassigned) [Compound 3]	0.15 to 15	< 0.15	
C=CC1CC1(NC(=O)[C@@H]1C[C@@H](NC(=O)c2sc3ccccc3c2Cl)CN1C(=O)[C@@H](NC(=O)CC1CC1)C(C)(C)C)C(=O)NS(=O)(=O)C1CC1 (single isomer, unassigned) [Compound 4]		< 0.15	EC50 [2]: 0.15 to 15 µM
C=CC1CC1(NC(=O)[C@@H]1CC(NC(=O)c2cc(-c3ccccc3)nc3ccccc23)CN1C(=O)[C@@H](NC(=O)OC(C)(C)C)C(C)(C)C)C(=O)NS(=O)(=O)C1CC1 (stereo partly shown) [Compound 6]	0.15 to 15	< 0.15	
C=CC1CC1(NC(=O)[C@@H]1C[C@@H](NC(=O)OCC2c3ccccc3-c3ccccc32)CN1C(=O)[C@@H](NC(=O)CC1CC1)C(C)(C)C)C(=O)NS(=O)(=O)C1CC1 (stereo partly shown) [Compound 7]	> 15	0.15 to 15	
C=CC1CC1(NC(=O)[C@@H]1C[C@@H](NC(=O)c2ccnc3ccccc23)CN1C(=O)[C@@H](NC(=O)CC1CC1)C(C)(C)C)C(=O)NS(=O)(=O)C1CC1 (stereo partly shown) [Compound 10]	> 15	0.15 to 15	
C=CC1CC1(NC(=O)[C@@H]1C[C@@H](NC(=O)c2ccnc3ccccc23)CN1C(=O)[C@@H](NC(=O)CC1CC1)C(C)(C)C)C(=O)NS(=O)(=O)C1CC1 (stereo partly shown) [Compound 11]		0.15 to 15	
C=CC1CC1(NC(=O)[C@@H]1C[C@@H](NC(=O)c2ccsc2)CN1C(=O)[C@@H](NC(=O)CC1CC1)C(C)(C)C)C(=O)NS(=O)(=O)C1CC1 (stereo partly shown) [Compound 12]	> 15	0.15 to 15	
C=CC1CC1(NC(=O)[C@@H]1C[C@@H](NC(=O)c2ccncc2)CN1C(=O)[C@@H](NC(=O)CC1CC1)C(C)(C)C)C(=O)NS(=O)(=O)C1CC1 (stereo partly shown) [Compound 15]		0.15 to 15	
C=CC1CC1(NC(=O)[C@@H]1C[C@@H](NC(=O)c2cnc(N3CCCCC3)nc2-c2ccccc2)CN1C(=O)[C@@H](NC(=O)CC1CC1)C(C)(C)C)C(=O)NS(=O)(=O)C1CC1 (stereo partly shown) [Compound 23]		0.15 to 15	
C=CC1CC1(NC(=O)[C@@H]1C[C@@H](NC(=O)c2c(OC)cccc2OC)CN1C(=O)[C@@H](NC(=O)CC1CC1)C(C)(C)C)C(=O)NS(=O)(=O)C1CC1 (stereo partly shown) [Compound 36]		0.15 to 15	
C=CC1CC1(NC(=O)[C@@H]1C[C@@H](N(C)C(=O)c2cc(-c3ccccc3)nc3ccccc23)CN1C(=O)[C@@H](NC(=O)OC(C)(C)C)C(C)(C)C)C(=O)NS(=O)(=O)C1CC1 (stereo partly shown) [Compound 42]		0.15 to 15	
C=CC1CC1(NC(=O)[C@@H]1C[C@@H](NC(=S)Nc2cccc3ccccc23)CN1C(=O)[C@@H](NC(=O)OC(C)(C)C)C(C)(C)C)C(=O)NS(=O)(=O)C1CC1 (stereo partly shown) [Compound 46]			IC50 [1, 3]: 0.15 to 15 µM
C=CC1CC1(NC(=O)[C@@H]1C[C@@H](NC(=O)N2CCc3ccccc3C2)CN1C(=O)[C@@H](NC(=O)CC1CC1)C(C)(C)C)C(=O)NS(=O)(=O)C1CC1 (stereo partly shown) [Compound 54]			IC50 [1, 3]: 0.15 to 15 µM
C=CC1CC1(NC(=O)[C@@H]1C[C@@H](N2CCN(Cc3ccccc3)CC2)CN1C(=O)[C@@H](NC(=O)OC)C(C)(C)C)C(=O)NS(=O)(=O)C1CC1 (stereo partly shown) [Compound 56]		> 15	
C=CC1CC1(NC(=O)[C@@H]1C[C@@H](N2Cc3ccccc3C2)CN1C(=O)[C@@H](NC(=O)C1CC1)C(C)(C)C)C(=O)NS(=O)(=O)C1CC1 (stereo partly shown) [Compound 57]		0.15 to 15	
